Columns and labels:
GRK2 [1] = target: T1, GRK2 (Homo sapiens, UniProt P25098); assay: GRK2 Inhibition Assay (TR-FRET, Example 1); format: biochemical; conditions: Table 4; Example 1 assay; read-out: Enzymatic GRK2 IC50: Av IC50 GRK2
T1 sequence (P25098 1-689): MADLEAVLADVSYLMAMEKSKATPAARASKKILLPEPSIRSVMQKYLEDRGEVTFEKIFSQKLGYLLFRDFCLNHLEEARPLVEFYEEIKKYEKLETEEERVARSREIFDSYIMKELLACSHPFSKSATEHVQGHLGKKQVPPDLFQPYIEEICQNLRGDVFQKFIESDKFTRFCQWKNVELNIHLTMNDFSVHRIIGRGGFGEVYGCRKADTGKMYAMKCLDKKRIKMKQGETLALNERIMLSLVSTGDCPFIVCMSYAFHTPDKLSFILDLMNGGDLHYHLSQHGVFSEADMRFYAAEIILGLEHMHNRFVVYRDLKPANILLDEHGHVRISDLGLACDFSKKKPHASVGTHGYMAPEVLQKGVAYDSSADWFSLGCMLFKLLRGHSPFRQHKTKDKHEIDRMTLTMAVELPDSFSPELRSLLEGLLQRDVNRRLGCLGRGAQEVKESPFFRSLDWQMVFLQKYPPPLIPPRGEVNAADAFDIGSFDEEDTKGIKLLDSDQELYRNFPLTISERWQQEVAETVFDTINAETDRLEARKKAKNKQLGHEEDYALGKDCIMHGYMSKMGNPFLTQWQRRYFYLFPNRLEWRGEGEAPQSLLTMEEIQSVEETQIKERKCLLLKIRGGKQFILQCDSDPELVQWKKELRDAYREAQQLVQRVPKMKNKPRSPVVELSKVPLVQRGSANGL
How it was run: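 TR-FRET phosphorylation readout: Eu anti-TopoIIα antibody with EDTA added after a 90 min RT kinase reaction of 1 nM GRK2, 7 μM ATP and 50 nM ULight-TopoIIα. Compounds were pre-incubated with enzyme 30 min at room temperature beforehand.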

PAXF1657 EV = assay: 7-day cellular proliferation assay (CellTiter-Glo), PAXF1657 EV; format: cell-based; conditions: proliferation, read-out: GeoMean IC50 (UM) PAXF1657 EV
How it was run: (§1)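 Cells plated at 500 per well and attached overnight. Next, 10-point inhibitor series added (30 μM-0.0002 μM, 0.3% DMSO) and a day-0 viability plate read. Then, after 3 days, medium with fresh compound. Finally, viability after 4 more days via CellTiter-Glo.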

PAXF1657 KO Clone #4 = assay: 7-day cellular proliferation assay (CellTiter-Glo), PAXF1657 KO Clone #4; format: cell-based; conditions: proliferation, read-out: GeoMean IC50 (uM) PAXF1657 KO Clone #4
How it was run: as §1

GRK2 [2] = target: T1, GRK2; assay: GRK2 Degradation Assay and Western Blot in PAXF1657 cells; format: cell-based; parameters: endogenous in cells; host or cells: PAXF1657; conditions: for inhibition at 0.3 µM: Conc 0.3 uM; for inhibition at 0.3 µM / inhibition at 1 µM / inhibition at 3 µM: read-out: Degradation Assay - 3 point: Degradation (%); for inhibition at 1 µM: Conc 1 uM; for inhibition at 3 µM: Conc 3 uM
How it was run: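 GRK2 degradation judged by immunoblot: NP40 lysates separated by SDS-PAGE and probed for GRK2 and β-actin, with HRP/ECL detection. Lysates came from PAXF1657 cells exposed to 0–10 μM compound for 6–24 h after reaching 70% confluency.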

| SMILES | IC50 (GRK2 [1]) [nM] | inhibition at 0.3 µM (GRK2 [2]) [%] | inhibition at 1 µM (GRK2 [2]) [%] | inhibition at 3 µM (GRK2 [2]) [%] | DC50 (GRK2 [2]; PAXF1657, 24 h, read-out: Degradation Assay - Full Dose Response: IC50 (uM) [cell line: PAXF1657, time point: 24 h]) [µM] | IC50 (PAXF1657 EV) [nM] | IC50 (PAXF1657 KO Clone #4) [µM] |
| --- | --- | --- | --- | --- | --- | --- | --- |
| Cc1ncsc1-c1ccc(CNC(=O)[C@@H]2C[C@@H](O)CN2C(=O)[C@@H](NC(=O)CCCOCCOCCOCCCCCCCCOc2ccc([C@@H](C)NC(=O)c3cccc(NCc4nnc(-c5ccncn5)n4C)c3)cc2)C(C)(C)C)cc1 [Compound D148] | 14.1 | 46.7 | 21.2 | 0.218 | 2.57 | 100 | 8.31 |
| Cc1ncsc1-c1ccc(CNC(=O)[C@@H]2C[C@@H](O)CN2C(=O)[C@@H](NC(=O)COCCCOCCCCCOc2ccc([C@H](C)NC(=O)c3cccc(NCc4nnc(-c5ccncn5)n4C)c3)cc2)C(C)(C)C)cc1 [Compound D151] | > 1000 | 56 | 58 | 34 |  | 300 | 9.65 |
| Cc1ncsc1-c1ccc(CNC(=O)[C@@H]2C[C@@H](O)CN2C(=O)[C@@H](NC(=O)CCCCCOCCOCCOCCCCCCOc2cccc([C@H](C)NC(=O)c3cccc(NCc4nnc(-c5ccncn5)n4C)c3)c2)C(C)(C)C)cc1 [Compound D153] | 125 | 10 | 12 | 18 |  | 340 | 6.82 |
| C[C@H](NC(=O)c1cccc(NCc2nnc(-c3ccncn3)n2C)c1)c1cccc(OCCCCCCOCCOCCOCCCC(=O)Nc2cccc3c2CN(C2CCC(=O)NC2=O)C3=O)c1 (stereo partly drawn) [Compound D154, N-((1S)-1-(3-(6-(2-(2-(4-(2-(2,6-dioxopiperidin-3-yl)-1-oxoisoindolin-4-ylamino)-4-oxobutoxy)ethoxy)ethoxy)hexyloxy)phenyl)ethyl)-3-((4-methyl-5-(pyrimidin-4-yl)-4H-1,2,4-triazol-3-yl)methylamino)benzamide] | 183 | 25.1 | 19.5 | 9.15 |  | 4390 | > 30 |
| Cc1ncsc1-c1ccc(CNC(=O)[C@@H]2C[C@@H](O)CN2C(=O)[C@@H](NC(=O)CCCCCOCCOCCOCCCCCCOc2cccc([C@@H](C)NC(=O)c3cccc(NCc4nnc(-c5ccncn5)n4C)c3)c2)C(C)(C)C)cc1 [Compound D162] | 14.1 | 51 | 72.7 | 72.9 |  | 490 | 11.4 |
| C[C@@H](NC(=O)c1cccc(NCc2nnc(-c3ccncn3)n2C)c1)c1cccc(OCCCCCCOCCOCCOCCCC(=O)Nc2cccc3c2CN(C2CCC(=O)NC2=O)C3=O)c1 (stereo partly drawn) [Compound D163, N-((1R)-1-(3-(6-(2-(2-(4-(2-(2,6-dioxopiperidin-3-yl)-1-oxoisoindolin-4-ylamino)-4-oxobutoxy)ethoxy)ethoxy)hexyloxy)phenyl)ethyl)-3-((4-methyl-5-(pyrimidin-4-yl)-4H-1,2,4-triazol-3-yl)methylamino)benzamide] | 16.6 | 74.4 | 81.5 | 89.6 |  | 370 | > 30 |
| Cc1ncsc1-c1ccc([C@H](C)NC(=O)[C@@H]2C[C@@H](O)CN2C(=O)[C@@H](NC(=O)COCCCOCCCCCOc2cccc([C@@H](C)NC(=O)c3cccc(NCc4nnc(-c5ccncn5)n4C)c3)c2)C(C)(C)C)cc1 [Compound D169] | 14.5 | 23.6 | 39.4 | 24 |  | 120 | 8.15 |

Now from value to compound, other results behind:

| IC50 (GRK2 [1]) [nM] | inhibition at 0.3 µM (GRK2 [2]) [%] | inhibition at 1 µM (GRK2 [2]) [%] | inhibition at 3 µM (GRK2 [2]) [%] | DC50 (GRK2 [2]; PAXF1657, 24 h, read-out: Degradation Assay - Full Dose Response: IC50 (uM) [cell line: PAXF1657, time point: 24 h]) [µM] | SMILES | IC50 (PAXF1657 EV) [nM] | IC50 (PAXF1657 KO Clone #4) [µM] |
| --- | --- | --- | --- | --- | --- | --- | --- |
| > 1000 | 44 | 43 | 40 |  | C[C@H](NC(=O)c1cccc(NCc2nnc(-c3ccncn3)n2C)c1)c1ccc(OCCCCCOCCCOCC(=O)Nc2cccc3c2CN(C2CCC(=O)NC2=O)C3=O)cc1 (stereo partly drawn) [Compound D150, N-((1S)-1-(4-((5-(3-(2-((2-(2,6-dioxopiperidin-3-yl)-1-oxoisoindolin-4-yl)amino)-2-oxoethoxy)propoxy)pentyl)oxy)phenyl)ethyl)-3-(((4-methyl-5-(pyrimidin-4-yl)-4H-1,2,4-triazol-3-yl)methyl)amino)benzamide] | 27700 | > 30 |
| > 1000 | 24 | 28 | 38 |  | C[C@H](NC(=O)c1cccc(NCc2nnc(-c3ccncn3)n2C)c1)c1ccc(OCCCCCCOCCOCCOCCCCCC(=O)Nc2cccc3c2CN(C2CCC(=O)NC2=O)C3=O)cc1 (stereo partly drawn) [Compound D152, N-((1S)-1-(4-(6-(2-(2-(6-(2-(2,6-dioxopiperidin-3-yl)-1-oxoisoindolin-4-ylamino)-6-oxohexyloxy)ethoxy)ethoxy)hexyloxy)phenyl)ethyl)-3-((4-methyl-5-(pyrimidin-4-yl)-4H-1,2,4-triazol-3-yl)methylamino)benzamide] | 12700 | > 30 |
| 25 | 92 | 87 | 83 |  | C[C@@H](NC(=O)c1cccc(NCc2nnc(-c3ccncn3)n2C)c1)c1cccc(OCCCCCOCCCOCCOc2ccc3c(c2)CN(C2CCC(=O)NC2=O)C3=O)c1 (stereo partly drawn) [Compound D160, N-((1R)-1-(3-((5-(3-(2-((2-(2,6-dioxopiperidin-3-yl)-1-oxoisoindolin-5-yl)oxy)ethoxy)propoxy)pentyl)oxy)phenyl)ethyl)-3-(((4-methyl-5-(pyrimidin-4-yl)-4H-1,2,4-triazol-3-yl)methyl)amino)benzamide] | 50 | > 30 |
| 12.1 | 51.6 | 72.9 | 81.5 |  | C[C@@H](NC(=O)c1cccc(NCc2nnc(-c3ccncn3)n2C)c1)c1cccc(OCCCCCCOCCOCC(=O)Nc2cccc3c2CN(C2CCC(=O)NC2=O)C3=O)c1 (stereo partly drawn) [Compound D170, N-((1R)-1-(3-((6-(2-(2-((2-(2,6-dioxopiperidin-3-yl)-1-oxoisoindolin-4-yl)amino)-2-oxoethoxy)ethoxy)hexyl)oxy)phenyl)ethyl)-3-(((4-methyl-5-(pyrimidin-4-yl)-4H-1,2,4-triazol-3-yl)methyl)amino)benzamide] | 410 | > 30 |
| 28.7 | 89.7 | 90.6 | 76.2 |  | C[C@@H](NC(=O)c1cccc(NCc2nnc(-c3ccncn3)n2C)c1)c1cccc(OCCCCCOCCCOCCNc2ccc3c(c2)CN(C2CCC(=O)NC2=O)C3=O)c1 (stereo partly drawn) [Compound D171, N-((1R)-1-(3-(5-(3-(2-(2-(2,6-dioxopiperidin-3-yl)-1-oxoisoindolin-5-ylamino)ethoxy)propoxy)pentyloxy)phenyl)ethyl)-3-((4-methyl-5-(pyrimidin-4-yl)-4H-1,2,4-triazol-3-yl)methylamino)benzamide] | 90 | > 30 |
| 104 | -7.47 | -8.22 | -15.9 |  | C[C@@H](NC(=O)c1cccc(NCc2nnc(-c3ccncn3)n2C)c1)c1cccc(C(=O)N2CC(N3CCN(c4ccc5c(c4)CN(C4CCC(=O)NC4=O)C5=O)CC3)C2)c1 (stereo partly shown) [Compound D172] | 14100 | > 30 |
| 18.6 | 52.5 | 48.5 | 14.7 |  | C[C@@H](NC(=O)c1cccc(NCc2nnc(-c3ccncn3)n2C)c1)c1ccc(OCCCN2CCN(c3ccc4c(c3)CN(C3CCC(=O)NC3=O)C4=O)CC2)cc1 (stereo partly shown) [Compound D173] | 30 | 0.26 |

Source: patent US20240174637A1, “DEGRADERS OF GRK2 AND USES THEREOF” (Sonata Therapeutics, Inc., priority 2021, published 2024)
